The values that follow come from PubChem BioAssay AID179 (DTP/NCI, 2004).

For the experiment, the system named is CEM cells HIV-1 protection, formazan growth assay. As to the kind of experiment: NCI AIDS Antiviral Assay. As to conditions: for IC50: measured here: growth of uninfected CEM cells. The method in brief: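 CEM (human) cells, HIV-1 infected vs uninfected, 5-point dosing, formazan growth read-out. Retest threshold 50% protection.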

One may read the EC50 as the concentration that produces a half-maximal response. The term IC50 denotes the point on the concentration scale where inhibition reaches its midpoint.

Several values for one entry are separate records, joined by “and”; a condition that tells them apart may be missing. Identical values can stand only once. Activity calls are given as the source filed them.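 Rule for the calls: active = compounds giving half or more protection of infected cells from virus-caused growth loss, again on retest; inactive = the rest.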 Where only a bound is given, the exact number is not on record here.

As for `O=c1c2c3c(sc2nc2n1N=CN(c1ccc(F)cc1)C2)CCCC3`, the EC50 was above 200 µM and the IC50 was above 200 µM.

As for `CCN(c1ccccc1)c1cc(=O)nc2ccccn12`, the EC50 was above 200 µM and the IC50 was above 200 µM.

`COc1cc2c(cc1O)[C@H](Cc1ccc(Oc3cc(C[C@H]4c5cc(OC)c(OC)cc5CCN4C)ccc3OC)cc1)NCC2`: the result was inactive.

For the compound `CCCCCCCC/C=C\CCCCCCCCN=Cc1c(O)c(O)c(C(C)C)c2cc(C)c(-c3c(C)cc4c(C(C)C)c(O)c(O)c(C=NCCCCCCCC/C=C\CCCCCCCC)c4c3O)c(O)c12`, the result was inactive.

In the case of `COc1c(O)cc2oc(-c3ccc(O)cc3)cc(=O)c2c1O`, the EC50 is above 148 µM and the IC50 was determined as 35.5 µM.

On to `Cc1ccc(-c2c(C#N)c(-c3ccccc3)c(C#N)c(=O)n2NS(=O)(=O)c2ccccc2)cc1`, for which the EC50 is above 200 µM and the IC50 is 69.2 µM.

For `Cc1cccc2c1N(C(=O)/C=C\C(=O)O)C(c1c(C)[nH]c3ccccc13)C2` (configuration not stated), the EC50 is above 138 µM and the IC50 came out at 75.9 µM.

`COc1cc(C2c3cc4c(cc3C(O)C3CCC(=O)N23)OCO4)cc(OC)c1OC` (configuration not stated): the EC50 is above 200 µM and the IC50 was 18.6 µM.

As to `O=C(O)C[S][Bi]([S]CC(=O)O)[S]CC(=O)O`, the outcome was inactive.

Consider `O=c1cc2c(Cl)cccc2n[nH]1`, for which the EC50 was above 195 µM and the IC50 is above 195 µM.

For `CCCC(O)CNCc1ccc(N(C)C)cc1` (configuration not stated), the outcome was inactive.

For the compound `Cc1cc(=O)[nH]c(NN2C(Cl)C(=O)C2c2ccccc2O)n1` (configuration not stated), the EC50 was above 58.9 µM and the IC50 stood at 3.63 µM.

Consider `COc1ccc(C2=C(Cl)c3cc(OC)c(OC)cc3C2)cc1OC`, for which the EC50 was above 200 µM and the IC50 was above 200 µM.

Take `O=C(C(/C=N\C(=S)Nc1ccccc1Cl)=C(/O)c1ccccc1)c1ccccc1`: the EC50 is above 200 µM and the IC50 is 12 µM.

On to `C[C@]12CC[C@H]3[C@@H](CC[C@]4(O)C[C@@H](O)CC[C@]34C=O)[C@@]1(O)CC[C@@H]2C1=CC(=O)OC1`, for which the EC50 was above 2 µM and the IC50 was 0.24 µM.

As to `COC1OC(COC(=O)c2ccccc2)CC1F` (configuration not stated), the EC50 is above 195 µM and the IC50 worked out at 21.4 µM.

As for `CN(C)C12CCCCC1S(=O)(=O)C2` (configuration not stated), the EC50 is above 891 µM and the IC50 is above 891 µM.

As to `CCO[C@]12C[C@H](OC)[C@@]3(O)CC(C1[C@H]3O)C13C4C2[C@H](OC)C1[C@](COC)(CN4CC)[C@H](O)C[C@@H]3OC` (some centres not stated), the EC50 was above 200 µM and the IC50 was 1.58 µM.

For the compound `CCOC(=O)c1ccc(C(=O)C(C(C)=O)C(=O)OC(C)(C)C)n1C` (configuration not stated), the EC50 was 43.7 µM and the IC50 turned out to be 74.1 µM.

With `CC(=O)Nc1ccc2c(C)c3c(nc2n1)[nH]c1ccccc13`, the EC50 was above 200 µM and the IC50 worked out at 25.7 µM.

As for `O=C1C=C(Br)C(=O)C(Br)=C1`, the EC50 is above 257 µM and the IC50 was determined as 23.4 µM.

With `COC(=O)NC1C(C)OC(OC2C/C=C(/C)C3C=CC4C(OC5CC(OC6CCC(OC7CC(O)C(OC8CCC(O)C(C)O8)C(C)O7)C(C)O6)C(OC(C)=O)C(C)O5)C(C)CC(C)C4C3(C)/C(O)=C3/C(=O)OC4(CC(C=O)=CC(O)C4/C=C\2C)C3=O)CC1(C)[N+](=O)[O-]` (configuration not stated), the EC50 is above 186 µM and the IC50 was 0.191 µM.

On to `CCOC(=O)C1(C(=O)OCC)C=C(c2ccccc2)N(C2OC(COC(C)=O)C(OC(C)=O)C(OC(C)=O)C2OC(C)=O)C1=S` (configuration not stated), for which the EC50 was above 200 µM and the IC50 turned out to be 24.5 µM.

As for `COC(=O)/C=c1\s/c(=C\C(=O)OC)c2ccccc12`, the result was inactive.

On to `Cc1ccc(-c2cc[n+]3c(n2)oc2ccccc23)cc1`, for which the EC50 is above 200 µM and the IC50 was found to be 3.63 µM.

In the case of `O=C(/C=C/C(=O)N/N=C/c1cc(S(=O)(=O)O)c2cccnc2c1O)N/N=C/c1cc(S(=O)(=O)O)c2cccnc2c1O`, the EC50 is 178 µM and the IC50 is above 200 µM.

With `O=C(O)CCC(=O)Nc1ccc2c(c1)S(=O)(=O)N(CC(=O)O)C2=O`, the EC50 is above 200 µM and the IC50 was above 200 µM.

For `O=C(c1cccs1)N(C(=S)N1CCN(c2ccccc2)CC1)c1ccccc1`, the EC50 is above 12.9 µM and the IC50 is above 12.9 µM.

For `COc1cc2cc(OC)c3cc4c(cc3c2c(OC)c1OC)OCO4`, the EC50 was above 39.8 µM and the half-maximal inhibitory concentration (IC50) is above 39.8 µM.

For `CN(C)C(=O)C1(c2ccc(Cl)cc2)CCN(CCCC(=O)c2ccc(F)cc2)CC1`, the EC50 was above 79.4 µM and the IC50 is 69.2 µM.

As to `COC(=O)C(COC(=O)/C=C/c1ccc(OC(C)=O)c(OC(C)=O)c1)OC(=O)/C=C/c1ccc(OC(C)=O)c(OC(C)=O)c1` (configuration not stated), the EC50 is above 200 µM and the IC50 amounted to 25.7 µM.

Take `O=C(Nc1nc2c(ncn2C2OC(CO)C(O)C2O)c(=O)[nH]1)c1ccccc1` (configuration not stated): the EC50 is above 646 µM and the IC50 is 251 µM.

For `Cc1cc(C)c2c(n1)sc1c(=O)n(N)c(C)nc12`, the outcome was inactive.

As for `COC(=O)N/N=C(\C)CC(=O)Nc1cccc([N+](=O)[O-])c1`, the EC50 was above 447 µM and the IC50 is above 447 µM.

On to `O=S(=O)(O)c1cc(N=Nc2cc(S(=O)(=O)O)c3cccnc3c2O)ccc1CCc1ccc(N=Nc2cc(S(=O)(=O)O)c3cccnc3c2O)cc1S(=O)(=O)O`, for which the EC50 was 1.7 µM and the IC50 turned out to be 9.33 µM.

For the compound `O=c1[nH]c(=O)n(C2OC(CO)C(O)C2O)c2nc(-c3ccc(-c4ccccc4)cc3)cnc12` (configuration not stated), the EC50 is above 200 µM and the IC50 is above 200 µM.

Turning to `COc1cc2c(c(OC)c1OC)-c1ccc(O)cc1C(NC(C)=O)CC2` (configuration not stated), the EC50 was above 2 µM and the IC50 stood at 0.0603 µM.

As for `COCCN1C2=CCCCC2=Nc2c1nc(N)[nH]c2=O`, the outcome was inactive.

On to `CN(CCCn1ccnc1[N+](=O)[O-])CCCn1ccnc1[N+](=O)[O-]`, for which the EC50 is above 200 µM and the IC50 came to 83.2 µM.

Consider `O=C(/C=C/c1ccccc1)CCC1C(=O)NC(=S)NC1=O`, for which the EC50 is above 85.1 µM and the IC50 is above 85.1 µM.

Turning to `COc1cc(Nc2nc3cc(C(F)(F)F)ccc3nc2C)cc(OC)c1OC`, the EC50 is above 60.3 µM and the IC50 was 31.6 µM.

In the case of `CC(C)OP(=O)(OC(C)C)/C(Cl)=N/Nc1ccc([N+](=O)[O-])cc1`, the EC50 is above 70.8 µM and the IC50 was above 70.8 µM.

Regarding `CC(=O)NC(CCC(=O)c1ccc(Cl)cc1Cl)(C(=O)O)C(=O)O`, the EC50 was above 200 µM and the half-inhibitory concentration (IC50) is above 200 µM.

Regarding `O=c1[nH]cnc2c1ncn2C1C=CC(CO)CC1` (configuration not stated), the EC50 is above 200 µM and the IC50 was above 200 µM.

Turning to `O=C1/C(=C/c2ccccc2)CCC/C1=C\c1ccc(O)c(CN2CCCCC2)c1`, the EC50 is above 200 µM and the IC50 came to 1.17 µM.

For the compound `N=c1c2ccccc2nc2oc3ccc(Cl)cc3n12`, the EC50 was above 200 µM and the IC50 is 102 µM.

As to `COc1cccc(/C=N\N=C\c2cccc(OC)c2O)c1O`, the EC50 is above 200 µM and the IC50 is 66.1 µM.

For `O=P(Nc1ccccc1)(Oc1ccccc1)N(CCCl)CCCl` (configuration not stated), the EC50 was above 50.1 µM and the IC50 was found to be 22.4 µM.

As for `Cn1c(=O)c2c(nc3sc4c(n32)C(=O)c2c(O)ccc(O)c2C4=O)n(C)c1=O`, the EC50 is 0.2 µM and the IC50 is 0.257 µM.

On to `Cn1cnc2c1c(=O)n(CCNCCO)c(=O)n2C`, for which the EC50 was above 200 µM and the IC50 was above 200 µM.

With `CC1=C(S(=O)c2ccc(C)cc2)CCC2(CCCCO2)O1` (configuration not stated), the EC50 is above 200 µM and the IC50 was found to be 107 µM.

Consider `CCOC(=O)C/C(C)=N\NS(=O)(=O)c1ccc(N)cc1`, for which the EC50 is above 417 µM and the IC50 was above 417 µM.

For the compound `CCCCCCOc1ccc(C(=N)N(CCCC)CCCC)c2ccccc12`, the EC50 is above 200 µM and the IC50 is 3.39 µM.

As to `COc1ncc(/C=C2\OC(=O)c3ccccc32)c(OC)n1`, the EC50 was above 200 µM and the IC50 is above 200 µM.

`CC(C)C1CC[C@H](C)C[C@@H]1OC(=O)C(C(=O)O[C@H]1C[C@@H](C)CCC1C(C)C)C(O)[C@@H]1OC(C)(C)O[C@H]1C1COC(C)(C)O1` (some centres not stated): the EC50 was above 200 µM and the IC50 came out at 7.41 µM.

As to `CCOC(=O)N1CCC2(CC1)C[C@](Sc1ccccc1)(C(C)=O)[C@H](C)O2`, the EC50 is above 200 µM and the IC50 is above 200 µM.

On to `O=c1[nH]c(=O)c2c([nH]1)[nH]c1ccc(Br)cc12`, for which the EC50 was above 200 µM and the IC50 is 34.7 µM.

On to `CC(=O)OCC(OC(C)=O)C(OC(C)=O)C(OC(C)=O)C(=O)CNn1c(-c2ccc(C)cc2)nc2ccccc2c1=O` (configuration not stated), for which the result was inactive.

For `CCOC(=O)c1nc2ccc(C(F)(F)F)cc2nc1Nc1ccc(Cl)c(Cl)c1`, the outcome was inactive.

Consider `Cc1cc(=O)oc2ccccc12`, for which the EC50 was above 813 µM and the IC50 was above 813 µM.

For the compound `N#Cc1sc2c(c1OC(=O)c1ccc(Cl)cc1Cl)c(=O)n(-c1ccccc1)c(=S)n2-c1ccccc1`, the EC50 is above 200 µM and the IC50 worked out at 1.23 µM.

Turning to `Cc1ccccc1NC(=O)CC1C(=O)Nc2ccccc2S1=O` (configuration not stated), the EC50 is above 21.9 µM and the IC50 was above 21.9 µM.

With `CC(=O)NC1=NC(=O)/C(=C/c2ccc(/C=C3/C(=O)N=C(NC(C)=O)N3C)cc2)N1C`, the EC50 is above 200 µM and the IC50 was 151 µM.

As for `O=C(NC(=O)c1c(F)cccc1F)Nc1ccc(Br)cn1`, the EC50 is above 200 µM and the IC50 is above 200 µM.

For the compound `OCCCN(CCO)CCN(CCCO)CCCO`, the EC50 was above 200 µM and the concentration for half-maximal inhibition (IC50) is above 200 µM.

Turning to `C/C(=N/Nc1ccc([N+](=O)[O-])cc1[N+](=O)[O-])C(CC(C(=O)NCc1ccccc1)/C(C)=N\Nc1ccc([N+](=O)[O-])cc1[N+](=O)[O-])C(=O)NCc1ccccc1` (configuration not stated), the EC50 was above 6.92 µM and the IC50 is above 6.92 µM.

Turning to `CC1=Nc2ccc([N+](=O)[O-])cc2N=C(C)C1`, the EC50 is above 200 µM; the half-inhibitory concentration (IC50) was > 200 µM and 126 µM.

For the compound `[O-][n+]1ccccc1CCN(O)Cc1ccccc1`, the EC50 is above 200 µM and the IC50 was above 200 µM.
